How the values were obtained:
[1] = in vivo; cited from earlier work
Bcl-w = target: T1, Bcl-w (Homo sapiens, UniProt Q92843); details: cited from earlier work
T1 sequence (Q92843 1-193): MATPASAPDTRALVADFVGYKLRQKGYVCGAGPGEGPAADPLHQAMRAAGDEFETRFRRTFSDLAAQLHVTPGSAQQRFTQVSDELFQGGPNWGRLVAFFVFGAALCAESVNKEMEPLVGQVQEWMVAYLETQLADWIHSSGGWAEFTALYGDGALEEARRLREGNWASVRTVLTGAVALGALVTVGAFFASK

[2] = tested on: xenograft models of small-cell lung cancer and acute lymphoblastic leukemia; details: oral administration, alone; cited from earlier work
SCLC H146 cell line = details: read-out: IC50 against SCLC H146 cell line; cited from earlier work
H345 xenograft = details: 100 mg/kg/day, H345 xenograft model; cited from earlier work
circulating platelets = details: clinical trial, patients; cited from earlier work
Bcl-2 = target: T2, Bcl-2 (Homo sapiens, UniProt P10415); experiment: Bcl-2 competition binding (fluorescence polarization) assay; details: for IC50: fluorescence polarization, 3 hours incubation at room temperature, read-out: BCL2 IC50; for BCL2 inhibitor potency in words: statement on the BCL2 IC50 table
T2 construct: purchased R&D Systems, Inc
T2 sequence (P10415 whole entry): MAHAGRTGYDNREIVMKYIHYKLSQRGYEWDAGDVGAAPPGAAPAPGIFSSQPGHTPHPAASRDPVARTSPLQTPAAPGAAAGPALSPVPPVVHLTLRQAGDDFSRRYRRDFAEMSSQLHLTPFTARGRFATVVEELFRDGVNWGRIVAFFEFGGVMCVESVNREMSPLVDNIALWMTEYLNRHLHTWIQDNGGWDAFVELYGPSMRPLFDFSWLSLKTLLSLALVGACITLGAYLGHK
Procedure: Biological Example 1: Bcl-2 Competition Binding (Fluorescence Polarization) Assay
This binding assay was performed in 96-well plate and with each assay contained 15 and 30 nM of labeled peptide and purified Bcl-2 protein (purchased from R&D Systems, Inc). The assay buffer contained 20 mM Hepes (pH 7.0), 50 mM KCl, 5 mM MgCl2, 20 mM Na2MoO4, 0.1 mg/ml Bovine Gamma Globulin and 0.01% NP40. Compounds were diluted in DMSO and added to the final assay with concentration range from 20 μM to 2 nM. The polarization degree (mP) value was determined by BioTek Synergy II with background subtraction after 3 hours of incubation at room temperature. IC50 was calculated using Prism software with sigmoidal dose-response curve fitting. ABT-737 was used as reference compound. Such assays, carried out with a range of doses of test compounds, allowed the determination of an approximate IC50 value.

[3] = cited from earlier work
CLL = details: read-out: average EC50, apoptosis in CLL; cited from earlier work
[4] = tested on: xenograft (DoHH2, Granta-519); details: single agent or in combination with Bendamustine and other agents; cited from earlier work
RS4; 11 cells = details: cited from earlier work
RS4; 11 xenografts = details: single dose of 100 mg/kg; cited from earlier work
Mcl-1 = Mcl-1 (Homo sapiens, UniProt Q07820); details: cited from earlier work
Mcl-1, sequence (Q07820 whole entry, species assumed): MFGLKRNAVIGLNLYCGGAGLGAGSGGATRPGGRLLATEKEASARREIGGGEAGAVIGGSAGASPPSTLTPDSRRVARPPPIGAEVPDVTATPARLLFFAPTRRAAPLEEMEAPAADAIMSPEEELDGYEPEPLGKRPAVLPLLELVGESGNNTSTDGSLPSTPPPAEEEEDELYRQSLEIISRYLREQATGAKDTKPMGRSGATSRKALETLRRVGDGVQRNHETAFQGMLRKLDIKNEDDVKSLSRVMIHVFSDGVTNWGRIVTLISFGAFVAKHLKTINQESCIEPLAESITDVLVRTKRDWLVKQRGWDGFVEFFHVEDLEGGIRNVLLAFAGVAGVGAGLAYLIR

Q: With `CC1(C)CCC(c2ccc(Cl)cc2)=C(CN2CCN(c3ccc(C(=O)NS(=O)(=O)c4ccc(N[C@H](CCN5CCOCC5)CSc5ccccc5)c(S(=O)(=O)C(F)(F)F)c4)cc3)CC2)C1` [ABT-263] as the compound, how does the oral bioavailability [1] read?
A: orally bioavailable

Q: And the Ki (Bcl-w)?
A: ≤ 1 nM

Q: What about the tumor response [2] of the same compound?
A: complete tumor regressions

Q: What about the IC50 (SCLC H146 cell line) of the same compound?
A: 110 nM

Q: And the TGI (H345 xenograft)?
A: 80%

Q: And the “treated tumors indicating at least a 50% reduction in tumor volume” value (H345 xenograft)?
A: 20%

Q: And the “effect on circulating platelets” value (circulating platelets)?
A: rapid, concentration-dependent decrease in the number of circulating platelets

Q: With `C=C(c1cnc2[nH]ccc2c1)c1cc(N2CCN(CC3=C(c4ccc(Cl)cc4)CC(C)(C)CC3)CC2)ccc1C(=O)NS(=O)(=O)c1ccc(NC[C@H]2COCCO2)c([N+](=O)[O-])c1` [Example 3, (S)—N-((4-(((1,4-dioxan-2-yl)methyl)amino)-3-nitrophenyl)sulfonyl)-2-(1-(1H-pyrrolo[2,3-b]pyridin-5-yl)vinyl)-4-(4-((4′-chloro-5,5-dimethyl-3,4,5,6-tetrahydro-[1,1′-biphenyl]-2-yl)methyl)piperazin-1-yl)benzamide] as the compound, how does the IC50 (Bcl-2) read?
A: 1.3 nM

Q: What about the “BCL2 inhibitor potency in words” value (Bcl-2) of the same compound?
A: highly potent BCL2 inhibitor

Q: Which oral bioavailability [1] does the source give for `CN(C)CC[C@H](CSc1ccccc1)Nc1ccc(S(=O)(=O)NC(=O)c2ccc(N3CCN(Cc4ccccc4-c4ccc(Cl)cc4)CC3)cc2)cc1[N+](=O)[O-]` [ABT-737] here?
A: not orally bioavailable

Q: What about the aqueous solubility [3] of the same compound?
A: low aqueous solubility

Q: With `CC1(C)CCC(CN2CCN(c3ccc(C(=O)NS(=O)(=O)c4ccc(NCC5CCOCC5)c([N+](=O)[O-])c4)c(Oc4cnc5[nH]ccc5c4)c3)CC2)=C(c2ccc(Cl)cc2)C1` [ABT-199] as the compound, how does the EC50 (CLL) read?
A: 3 nM

Q: What about the xenograft growth [4] of the same compound?
A: inhibits xenograft growth

Q: And the EC50 (RS4; 11 cells)?
A: 8 nM

Q: What about the “maximal tumor growth inhibition” value (RS4; 11 xenografts) of the same compound?
A: 95%

Q: And the tumor growth delay (RS4; 11 xenografts)?
A: 152%

Q: And the “activity to Mcl-1” value (Mcl-1)?
A: no activity

Q: For `CC1(C)CCC(CN2CCN(c3ccc4c(c3)C(c3cnc5[nH]ccc5c3)CN(S(=O)(=O)c3ccc(NC[C@H]5COCCO5)c([N+](=O)[O-])c3)C4=O)CC2)=C(c2ccc(Cl)cc2)C1` (stereo partly drawn) [Example 2, 6-(4-[[2-(4-chlorophenyl)-4,4-dimethylcyclohex-1-en-1-yl]methyl]piperazin-1-yl)-2-(4-[[(2S)-1,4-dioxan-2-ylmethyl]amino]-3-nitrobenzenesulfonyl)-4-[1H-pyrrolo[2,3-b]pyridin-5-yl]-3,4-dihydroisoquinolin-1-one], which IC50 (Bcl-2) is on record?
A: 0.8 nM

Q: With `CC1(C)CCC(CN2CCN(c3ccc(C(=O)NS(=O)(=O)c4ccc(NCC5CCOCC5)c([N+](=O)[O-])c4)c(P(C)(=O)c4cnc5[nH]ccc5c4)c3)CC2)=C(c2ccc(Cl)cc2)C1` (centres unmarked) [Example 1, 4-(4-[[2-(4-chlorophenyl)-4,4-dimethylcyclohex-1-en-1-yl]methyl]piperazin-1-yl)-2-[methyl(1H-pyrrolo[2,3-b]pyridin-5-yl)phosphoroso]-N-[3-nitro-4-[(oxan-4-ylmethyl)amino]benzenesulfonyl]benzamide] as the compound, how does the IC50 (Bcl-2) read?
A: 0.45 nM

Q: What about the “BCL2 inhibitor potency in words” value (Bcl-2) of the same compound?
A: highly potent BCL2 inhibitor

Reference: patent US12583853B2, “1H-pyrrolo[2,3-b]pyridine derivatives and related compounds as BCL-2 inhibitors for the treatment of neoplastic and autoimmune diseases” (Newave Pharmaceutical Inc., priority 2018, dated 2026)
